Read-outs that look alike come from different tables or passages of the source.
Molecular target: Recombinant human cathepsin S (CatS) (Homo sapiens, UniProt P25774)
Assay: Recombinant human cathepsin S (CatS) inhibition assay, fluorogenic substrate Z-Valine-Valine-Arginine-AMC;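 note: Baculovirus-expressed CatS in pH 5.0 sodium acetate buffer with DTT and NaCl, fluorescence read each minute over 20 min, inhibition derived from rate slope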

Recombinant human cathepsin S (CatS), sequence (P25774 115-331): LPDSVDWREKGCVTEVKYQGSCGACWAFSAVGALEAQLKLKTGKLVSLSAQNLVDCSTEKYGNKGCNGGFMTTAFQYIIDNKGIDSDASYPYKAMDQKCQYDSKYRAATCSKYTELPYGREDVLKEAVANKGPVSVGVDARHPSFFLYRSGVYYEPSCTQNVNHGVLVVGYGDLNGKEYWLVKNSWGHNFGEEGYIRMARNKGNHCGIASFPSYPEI

IC50 [nM]	SMILES	IC50 (CatS IC50) [nM]
–	CS(=O)(=O)N1CCc2c(c(-c3ccc(Cl)c(C#Cc4ccc(CNCc5ccc(Cl)cc5)cc4)c3)nn2CCCN2CCC(O)CC2)C1 [Example 330, 1-{3-[3-(4-Chloro-3-{[4-({[(4-chlorophenyl)methyl]amino}methyl)phenyl]ethynyl}phenyl)-5-(methylsulfonyl)-4,5,6,7-tetrahydro-1H-pyrazolo[4,3-c]pyridin-1-yl]propyl}piperidin-4-ol]	90
–	CS(=O)(=O)N1CCc2c(c(-c3ccc(Cl)c(C#Cc4ccc(CNCc5ccc(Cl)cc5)cc4)c3)nn2CCCN2CCC(N)CC2)C1 [Example 331, 1-{3-[3-(4-Chloro-3-{[4-({[(4-chlorophenyl)methyl]amino}methyl)phenyl]ethynyl}phenyl)-5-(methylsulfonyl)-4,5,6,7-tetrahydro-1H-pyrazolo[4,3-c]pyridin-1-yl]propyl}piperidin-4-amine]	170
190	CS(=O)(=O)N1CCc2c(c(-c3ccc(Cl)c(C#Cc4ccc(CNCc5ccc(Cl)cc5)cc4)c3)nn2CC(O)CN2CCOCC2)C1 (stereo not shown) [Example 332, 1-[3-(4-Chloro-3-{[4-({[(4-chlorophenyl)methyl]amino}methyl)phenyl]ethynyl}phenyl)-5-(methylsulfonyl)-4,5,6,7-tetrahydro-1H-pyrazolo[4,3-c]pyridin-1-yl]-3-morpholin-4-ylpropan-2-ol]	–
–	CS(=O)(=O)N1CCc2c(c(-c3ccc(Cl)c(C#Cc4ccc(CNCc5ccc(Cl)cc5)cc4)c3)nn2CCCN2CCCC2)C1 [Example 333, 1-[4-({2-Chloro-5-[5-(methylsulfonyl)-1-(3-pyrrolidin-1-ylpropyl)-4,5,6,7-tetrahydro-1H-pyrazolo[4,3-c]pyridin-3-yl]phenyl}ethynyl)phenyl]-N-[(4-chlorophenyl)methyl]methanamine]	180
30	CCOC(=O)C1CCN(CCCn2nc(-c3ccc(Cl)c(C#Cc4ccc(CNCc5ccc(Cl)cc5)cc4)c3)c3c2CCN(S(C)(=O)=O)C3)CC1 [Example 334, Ethyl 1-{3-[3-(4-chloro-3-{[4-({[(4-chlorophenyl)methyl]amino}methyl)phenyl]ethynyl}phenyl)-5-(methylsulfonyl)-4,5,6,7-tetrahydro-1H-pyrazolo[4,3-c]pyridin-1-yl]propyl}piperidine-4-carboxylate]	–
60	CS(=O)(=O)N1CCc2c(c(-c3ccc(Cl)c(C#Cc4ccc(CNCc5ccc(Cl)cc5)cc4)c3)nn2CCCN2CCC3(CC2)OCCO3)C1 [Example 335, 1-{4-[(2-Chloro-5-{1-[3-(1,4-dioxa-8-azaspiro[4.5]dec-8-yl)propyl]-5-(methylsulfonyl)-4,5,6,7-tetrahydro-1H-pyrazolo[4,3-c]pyridin-3-yl}phenyl)ethynyl]phenyl}-N-[(4-chlorophenyl)methyl]methanamine]	–
–	CS(=O)(=O)N1CCc2c(c(-c3ccc(Cl)c(C#Cc4ccc(CNCc5ccc(Cl)cc5)cc4)c3)nn2CCCN2CCC(C(=O)O)CC2)C1 [Example 336, 1-{3-[3-(4-Chloro-3-{[4-({[(4-chlorophenyl)methyl]amino}methyl)phenyl]ethynyl}phenyl)-5-(methylsulfonyl)-4,5,6,7-tetrahydro-1H-pyrazolo[4,3-c]pyridin-1-yl]propyl}piperidine-4-carboxylic acid]	150
–	CS(=O)(=O)N1CCc2c(c(-c3ccc(Cl)c(C#Cc4ccc(CNCc5ccc(Cl)cc5)cc4)c3)nn2CCCN2CCC(CO)CC2)C1 [Example 337, (1-{3-[3-(4-Chloro-3-{[4-({[(4-chlorophenyl)methyl]amino}methyl)phenyl]ethynyl}phenyl)-5-(methylsulfonyl)-4,5,6,7-tetrahydro-1H-pyrazolo[4,3-c]pyridin-1-yl]propyl}piperidin-4-yl)methanol]	70
–	CS(=O)(=O)N1CCc2c(c(-c3ccc(Cl)c(C#Cc4ccc(CNCc5ccc(Cl)cc5)cc4)c3)nn2CCCN2CCC(N3CCCCC3=O)CC2)C1 [Example 338, 1′-{3-[3-(4-Chloro-3-{[4-({[(4-chlorophenyl)methyl]amino}methyl)phenyl]ethynyl}phenyl)-5-(methylsulfonyl)-4,5,6,7-tetrahydro-1H-pyrazolo[4,3-c]pyridin-1-yl]propyl}-1,4′-bipiperidin-2-one]	20
230	COc1ccc(CNCc2ccc(C#Cc3cc(-c4nn(CCCN5CCOCC5)c5c4CN(S(C)(=O)=O)CC5)ccc3Cl)cc2)cc1 [Example 339, 1-[4-({2-Chloro-5-[5-(methylsulfonyl)-1-(3-morpholin-4-ylpropyl)-4,5,6,7-tetrahydro-1H-pyrazolo[4,3-c]pyridin-3-yl]phenyl}ethynyl)phenyl]-N-{[4-(methyloxy)phenyl]methyl}methanamine]	–
–	CS(=O)(=O)N1CCc2c(c(-c3ccc(Cl)c(C#Cc4ccc(CNCC(F)(F)F)cc4)c3)nn2CCCN2CCOCC2)C1 [Example 340, N-{[4-({2-Chloro-5-[5-(methylsulfonyl)-1-(3-morpholin-4-ylpropyl)-4,5,6,7-tetrahydro-1H-pyrazolo[4,3-c]pyridin-3-yl]phenyl}ethynyl)phenyl]methyl}-2,2,2-trifluoroethanamine]	390
–	CS(=O)(=O)N1CCc2c(c(-c3ccc(Cl)c(C#Cc4ccc(CNCC5CC5)cc4)c3)nn2CCCN2CCOCC2)C1 [Example 341, 1-[4-({2-Chloro-5-[5-(methylsulfonyl)-1-(3-morpholin-4-ylpropyl)-4,5,6,7-tetrahydro-1H-pyrazolo[4,3-c]pyridin-3-yl]phenyl}ethynyl)phenyl]-N-(cyclopropylmethyl)methanamine]	830
–	CS(=O)(=O)N1CCc2c(c(-c3ccc(Cl)c(C#Cc4ccc(CN[C@H](CO)c5ccccc5)cc4)c3)nn2CCCN2CCOCC2)C1 [Example 342, (2S)-2-({[4-({2-Chloro-5-[5-(methylsulfonyl)-1-(3-morpholin-4-ylpropyl)-4,5,6,7-tetrahydro-1H-pyrazolo[4,3-c]pyridin-3-yl]phenyl}ethynyl)phenyl]methyl}amino)-2-phenylethanol]	310
–	CS(=O)(=O)N1CCc2c(c(-c3ccc(Cl)c(C#Cc4ccc(CNCc5ccc(Cl)cc5)cc4)c3)nn2CCCN2CCC(N3CCOCC3)CC2)C1 [Example 343, 1-{4-[(2-Chloro-5-{5-(methylsulfonyl)-1-[3-(4-morpholin-4-ylpiperidin-1-yl)propyl]-4,5,6,7-tetrahydro-1H-pyrazolo[4,3-c]pyridin-3-yl}phenyl)ethynyl]phenyl}-N-[(4-chlorophenyl)methyl]methanamine]	40
–	CC1CCN(CCCn2nc(-c3ccc(Cl)c(C#Cc4ccc(CNCc5ccc(Cl)cc5)cc4)c3)c3c2CCN(S(C)(=O)=O)C3)CC1 [Example 344, 1-{4-[(2-Chloro-5-{1-[3-(4-methylpiperidin-1-yl)propyl]-5-(methylsulfonyl)-4,5,6,7-tetrahydro-1H-pyrazolo[4,3-c]pyridin-3-yl}phenyl)ethynyl]phenyl}-N-[(4-chlorophenyl)methyl]methanamine]	60
–	CS(=O)(=O)N1CCc2c(c(-c3ccc(Cl)c(C#Cc4ccc(CNCc5ccc(Cl)cc5)cc4)c3)nn2CCCN2CCC(C(F)(F)F)CC2)C1 [Example 345, 1-[4-({2-Chloro-5-[5-(methylsulfonyl)-1-{3-[4-(trifluoromethyl)piperidin-1-yl]propyl}-4,5,6,7-tetrahydro-1H-pyrazolo[4,3-c]pyridin-3-yl]phenyl}ethynyl)phenyl]-N-[(4-chlorophenyl)methyl]methanamine]	110
20	CC(=O)NC1CCN(CCCn2nc(-c3ccc(Cl)c(C#Cc4ccc(CNCc5ccc(Cl)cc5)cc4)c3)c3c2CCN(S(C)(=O)=O)C3)CC1 [Example 346, N-(1-{3-[3-(4-Chloro-3-{[4-({[(4-chlorophenyl)methyl]amino}methyl)phenyl]ethynyl}phenyl)-5-(methylsulfonyl)-4,5,6,7-tetrahydro-1H-pyrazolo[4,3-c]pyridin-1-yl]propyl}piperidin-4-yl)acetamide]	–
–	COC(=O)CNCc1ccc(C#Cc2cc(-c3nn(CCCN4CCOCC4)c4c3CN(S(C)(=O)=O)CC4)ccc2Cl)cc1 [Example 347, Methyl N-{[4-({2-chloro-5-[5-(methylsulfonyl)-1-(3-morpholin-4-ylpropyl)-4,5,6,7-tetrahydro-1H-pyrazolo[4,3-c]pyridin-3-yl]phenyl}ethynyl)phenyl]methyl}glycinate]	610
–	CS(=O)(=O)N1CCc2c(c(-c3ccc(Cl)c(C#Cc4ccc(CNCC(F)(F)F)cc4)c3)nn2CCCN2CCC(N3CCCC3=O)CC2)C1 [Example 348, 1-(1-{3-[3-{4-Chloro-3-[(4-{[(2,2,2-trifluoroethyl)amino]methyl}phenyl)ethynyl]phenyl}-5-(methylsulfonyl)-4,5,6,7-tetrahydro-1H-pyrazolo[4,3-c]pyridin-1-yl]propyl}piperidin-4-yl)pyrrolidin-2-one]	100
–	C=CCNCc1ccc(C#Cc2cc(-c3nn(CCCN4CCOCC4)c4c3CN(S(C)(=O)=O)CC4)ccc2Cl)cc1 [Example 349, N-{[4-({2-Chloro-5-[5-(methylsulfonyl)-1-(3-morpholin-4-ylpropyl)-4,5,6,7-tetrahydro-1H-pyrazolo[4,3-c]pyridin-3-yl]phenyl}ethynyl)phenyl]methyl}prop-2-en-1-amine]	550
40	CS(=O)(=O)N1CCc2c(c(-c3ccc(Cl)c(C#Cc4ccc(CNCc5ccc(Cl)cc5)cc4)c3)nn2CCCN2CCC(C(N)=O)CC2)C1 [Example 350, 1-{3-[3-(4-Chloro-3-{[4-({[(4-chlorophenyl)methyl]amino}methyl)phenyl]ethynyl}phenyl)-5-(methylsulfonyl)-4,5,6,7-tetrahydro-1H-pyrazolo[4,3-c]pyridin-1-yl]propyl}piperidine-4-carboxamide]	–
120	COC(=O)[C@@H](NCc1ccc(C#Cc2cc(-c3nn(CCCN4CCOCC4)c4c3CN(S(C)(=O)=O)CC4)ccc2Cl)cc1)c1ccccc1 [Example 351, Methyl (2S)-({[4-({2-chloro-5-[5-(methylsulfonyl)-1-(3-morpholin-4-ylpropyl)-4,5,6,7-tetrahydro-1H-pyrazolo[4,3-c]pyridin-3-yl]phenyl}ethynyl)phenyl]methyl}amino)(phenyl)ethanoate]	–
